Measured values from ChEMBL document CHEMBL1201862, “PubChem BioAssay data set” (2004).
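48-hour exposure; five concentrations; linearly interpolated endpoints. The concentration for 50% growth inhibition is given as GI50.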 Active and inactive are the calls of the source. Rule as the data show it: active = GI50 up to about 1.1 µM and inactive = higher.

What was measured:
Assay in all cases: NCI anticancer screen, dose series, 48 h
[1] = test system: HCT-15
[2] = test system: Hs-578T
[3] = test system: IGROV-1
[4] = test system: K562
[5] = test system: MDA-MB-435
[6] = test system: NCI-H226
[7] = test system: NCI-H23
[8] = test system: NCI-H460
[9] = test system: NCI-H522
[10] = test system: PC-3
[11] = test system: SF-268
[12] = test system: SN12C
[13] = test system: SNB-19
[14] = test system: SR
[15] = test system: U-251
[16] = test system: UO-31
[17] = test system: HCC 2998
[18] = test system: HCT-116
[19] = test system: RXF 393

In the case of O=C(NCP(=O)(Oc1ccccc1)Oc1ccccc1)OCc1ccccc1, the GI50 [1] is reported as over 100 µM, the GI50 [2] is reported as 40.7 µM (inactive) and the GI50 [3] is reported as > 100 µM (inactive). The GI50 [4] was > 100 µM (inactive), the GI50 [5] was > 100 µM (inactive) and the GI50 [6] was > 100 µM (inactive). The GI50 [7] was > 100 µM (inactive), the GI50 [8] was > 100 µM (inactive) and the GI50 [9] was 83.6 µM (inactive). For the same molecule, the GI50 [10] was 43.9 µM (inactive), the GI50 [11] was > 100 µM (inactive) and the GI50 [12] was > 100 µM (inactive). For the same molecule, the GI50 [13] was > 100 µM (inactive), the GI50 [14] was > 100 µM (inactive) and the GI50 [15] was > 100 µM (inactive). The GI50 [16] was > 100 µM (inactive).

For Oc1ccc(Oc2cc3c(cc2Oc2ccc(O)cc2)-c2nc-3nc3[nH]c(nc4nc(nc5[nH]c(n2)c2cc(Oc6ccc(O)cc6)c(Oc6ccc(O)cc6)cc52)-c2cc(Oc5ccc(O)cc5)c(Oc5ccc(O)cc5)cc2-4)c2cc(Oc4ccc(O)cc4)c(Oc4ccc(O)cc4)cc32)cc1, the GI50 [17] was > 100 µM (inactive), the GI50 [18] was > 100 µM (inactive) and the GI50 [1] was over 100 µM. For the same molecule, the GI50 [2] was > 100 µM (inactive), the GI50 [3] was > 100 µM (inactive) and the GI50 [4] was > 100 µM (inactive). For the same molecule, the GI50 [5] was > 100 µM (inactive), the GI50 [6] was > 100 µM (inactive) and the GI50 [7] was > 100 µM (inactive). For the same molecule, the GI50 [8] was > 100 µM (inactive), the GI50 [9] was > 100 µM (inactive) and the GI50 [10] was > 100 µM (inactive). For the same molecule, the GI50 [11] was > 100 µM (inactive), the GI50 [12] was > 100 µM (inactive) and the GI50 [13] was > 100 µM (inactive). The GI50 [14] was > 100 µM (inactive), the GI50 [15] was > 100 µM (inactive) and the GI50 [16] was > 100 µM (inactive).

In the case of O=C1C(c2ccccc2)=[N+]([O-])c2ccccc21, the GI50 [17] is reported as 20 µM (inactive), the GI50 [18] is reported as 5.78 µM (inactive) and the GI50 [1] is reported as 19.7 µM. For the same molecule, the GI50 [2] was 29.8 µM (inactive), the GI50 [4] was 3.15 µM (inactive) and the GI50 [5] was 3.37 µM (inactive). For the same molecule, the GI50 [6] was 17.1 µM (inactive), the GI50 [7] was 19.4 µM (inactive) and the GI50 [8] was 16.5 µM (inactive). For the same molecule, the GI50 [10] was 11.6 µM (inactive), the GI50 [11] was 14.1 µM (inactive) and the GI50 [12] was 17.3 µM (inactive). The GI50 [13] was 19 µM (inactive), the GI50 [14] was 5.6 µM (inactive) and the GI50 [15] was 10.5 µM (inactive). The GI50 [16] was 16.2 µM (inactive).

With COc1cccc(-c2cc(O)c3cc(NC(C)=O)ccc3n2)c1 the GI50 [17] was > 100 µM (inactive), the GI50 [1] was 32 µM and the GI50 [2] was 2.63 µM (inactive). For the same molecule, the GI50 [3] was 27.2 µM (inactive), the GI50 [5] was 3.8 µM (inactive) and the GI50 [7] was 26.8 µM (inactive). The GI50 [8] was 33 µM (inactive), the GI50 [9] was 5.11 µM (inactive) and the GI50 [10] was 23.7 µM (inactive). The GI50 [11] was 6.3 µM (inactive), the GI50 [12] was 78 µM (inactive) and the GI50 [13] was 8.41 µM (inactive). For the same molecule, the GI50 [14] was 2.34 µM (inactive), the GI50 [15] was 9.57 µM (inactive) and the GI50 [16] was 71.6 µM (inactive).

For COC(c1ccsc1)C(C#N)(C#N)/N=C/c1ccsc1 (stereo not given), the GI50 [17] was 19.8 µM (inactive), the GI50 [18] was 12.8 µM (inactive) and the GI50 [1] was 13 µM. For the same molecule, the GI50 [2] was 22.1 µM (inactive), the GI50 [3] was 17.1 µM (inactive) and the GI50 [4] was 13 µM (inactive). The GI50 [5] was 15.5 µM (inactive), the GI50 [6] was 21.6 µM (inactive) and the GI50 [7] was 13.1 µM (inactive). For the same molecule, the GI50 [8] was 18.4 µM (inactive), the GI50 [9] was 6.73 µM (inactive) and the GI50 [10] was 14 µM (inactive). The GI50 [19] was 12.7 µM (inactive), the GI50 [11] was 16.1 µM (inactive) and the GI50 [12] was 16.7 µM (inactive). For the same molecule, the GI50 [13] was 23 µM (inactive), the GI50 [15] was 17.3 µM (inactive) and the GI50 [16] was 13.4 µM (inactive).

C/C(=N\NC(=S)NC1CCCC1)c1ccccn1 was tested, and the GI50 [17] was 0.515 µM (active), the GI50 [18] was < 0.01 µM (active) and the GI50 [1] was under 0.01 µM. The GI50 [2] was 36.6 µM (inactive), the GI50 [3] was < 0.01 µM (active) and the GI50 [4] was < 0.01 µM (active). The GI50 [5] was 0.578 µM (active), the GI50 [6] was 0.0416 µM (active) and the GI50 [7] was < 0.0177 µM (active). For the same molecule, the GI50 [8] was 0.0533 µM (active), the GI50 [10] was < 0.01 µM (active) and the GI50 [11] was 0.569 µM (active). The GI50 [12] was 0.299 µM (active), the GI50 [13] was 1.05 µM (active) and the GI50 [14] was < 0.01 µM (active). For the same molecule, the GI50 [15] was 0.0753 µM (active) and the GI50 [16] was < 0.026 µM (active).
